Laboratory results taken from article PMC8086025, “A benzopyran with antiarrhythmic activity is an inhibitor of Kir3.1-containing potassium channels” (The Journal of Biological Chemistry, 2021).
Where “and” joins values, the source holds several entries; their conditions need not be identical. Identical values can stand only once. Entries after “also recorded” stand apart in the source; their conditions may differ.

How the values were obtained:
IKACh = assay: In vivo ECG, carbachol-induced heart rate slowing in anesthetized mice
Description: We tested the in vivo effects of BP-G1 versus those of BP-G1(SR) on heart rate in anesthetized adult mice (Fig. 8). ECG was continuously recorded. Panel A is the ECG showing that after carbachol (300 μl of 200 μM) was administered, i.p. (red mark), the heart decelerated, with a visible RR prolongation. About 10 min after carbachol injection, BP-G1 was delivered via the jugular vein (40 μl of 240 μM) (green mark). Within 5 min, there was a reversal of carbachol’s effects on the heart rate. Panel B is a control mouse showing heart rate slowing after carbachol administration (red mark).
Mice were anesthetized (1.5% isofluorane), and a 1.2 French octapolar catheter (Millar) with a drug delivery port was placed transvenously, through the jugular vein, into the right atrium. Continuous ECG was recorded using the Animal Bio Amp and PowerLab 4/35 Advanced Instruments apparatus. […] Saline control at the same volume was performed. Results are averages ±SD.

Histamine H2 = molecular target: T1, Histamine H2 (Homo sapiens, UniProt P25021); assay: Radioligand binding, [125I]APT; details: read-out: % Specific Binding at 10 µM
T1 construct: expressed in transfected cells; host or cells: CHO cells
T1 sequence (P25021 whole entry): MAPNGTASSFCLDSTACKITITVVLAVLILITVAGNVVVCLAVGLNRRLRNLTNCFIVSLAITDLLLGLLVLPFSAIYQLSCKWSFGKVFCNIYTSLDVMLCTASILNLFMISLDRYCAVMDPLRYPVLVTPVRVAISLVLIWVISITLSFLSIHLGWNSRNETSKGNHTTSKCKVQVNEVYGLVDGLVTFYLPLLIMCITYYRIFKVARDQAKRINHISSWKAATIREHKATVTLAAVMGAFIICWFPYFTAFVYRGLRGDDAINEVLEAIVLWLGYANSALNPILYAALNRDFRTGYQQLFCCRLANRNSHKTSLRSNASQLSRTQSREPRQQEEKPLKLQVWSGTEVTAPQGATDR

Neurokinin NK1 = molecular target: T2, Neurokinin NK1 (Homo sapiens, UniProt P25103); assay: Radioligand binding, [125I]-Substance P LYS3, U373MG uppsala; details: read-out: % Specific Binding at 10 µM
T2 construct: endogenous in cells; host or cells: U373MG uppsala
T2 sequence (P25103 whole entry): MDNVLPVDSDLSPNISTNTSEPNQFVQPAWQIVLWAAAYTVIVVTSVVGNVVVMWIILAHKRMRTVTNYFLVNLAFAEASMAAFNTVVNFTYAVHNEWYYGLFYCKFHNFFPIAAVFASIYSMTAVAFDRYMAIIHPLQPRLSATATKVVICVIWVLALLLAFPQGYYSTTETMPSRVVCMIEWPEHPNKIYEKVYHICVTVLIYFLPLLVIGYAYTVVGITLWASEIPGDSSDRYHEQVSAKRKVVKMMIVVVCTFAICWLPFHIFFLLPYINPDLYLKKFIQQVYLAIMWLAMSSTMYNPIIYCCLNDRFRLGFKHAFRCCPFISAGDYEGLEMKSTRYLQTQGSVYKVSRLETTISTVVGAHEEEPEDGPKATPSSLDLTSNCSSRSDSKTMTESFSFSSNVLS

Opioid Kappa = molecular target: T3, Opioid Kappa (Rattus norvegicus, UniProt P34975); assay: Radioligand binding, [3H]U 69593; details: read-out: % Specific Binding at 10 µM
T3 construct: expressed in transfected cells; host or cells: CHO cells
T3 sequence (P34975 whole entry): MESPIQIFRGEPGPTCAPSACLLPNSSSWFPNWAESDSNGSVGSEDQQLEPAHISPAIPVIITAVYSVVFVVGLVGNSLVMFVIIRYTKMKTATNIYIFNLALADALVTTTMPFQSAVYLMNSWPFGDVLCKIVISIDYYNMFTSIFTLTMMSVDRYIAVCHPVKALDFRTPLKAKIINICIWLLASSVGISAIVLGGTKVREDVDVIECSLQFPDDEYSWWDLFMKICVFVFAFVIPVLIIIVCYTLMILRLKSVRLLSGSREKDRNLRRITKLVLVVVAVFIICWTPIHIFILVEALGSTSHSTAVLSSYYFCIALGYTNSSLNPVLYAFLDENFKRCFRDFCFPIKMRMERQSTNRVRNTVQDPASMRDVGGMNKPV

5-HT2A = molecular target: T4, 5-HT2A (Homo sapiens, UniProt P28223); assay: Radioligand binding, [3H]ketanserin; details: read-out: % Specific Binding at 10 µM
T4 construct: expressed in transfected cells; host or cells: HEK-293 cells
T4 sequence (P28223 whole entry): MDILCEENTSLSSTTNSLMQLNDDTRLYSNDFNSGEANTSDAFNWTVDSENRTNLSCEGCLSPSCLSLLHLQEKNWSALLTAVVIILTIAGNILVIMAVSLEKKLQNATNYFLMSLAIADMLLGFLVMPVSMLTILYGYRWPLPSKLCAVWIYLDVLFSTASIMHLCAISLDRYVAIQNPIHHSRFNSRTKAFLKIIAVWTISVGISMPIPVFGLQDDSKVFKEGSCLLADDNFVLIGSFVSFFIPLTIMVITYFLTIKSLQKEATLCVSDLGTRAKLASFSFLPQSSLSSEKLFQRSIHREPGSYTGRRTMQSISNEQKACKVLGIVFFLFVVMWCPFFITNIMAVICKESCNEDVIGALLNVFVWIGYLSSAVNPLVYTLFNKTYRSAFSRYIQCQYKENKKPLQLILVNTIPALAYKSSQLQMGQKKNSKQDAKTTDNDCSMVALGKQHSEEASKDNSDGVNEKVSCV

[1] = molecular target: T5, Non-steroid nuclear receptors PPARγ (Homo sapiens, UniProt P37231); assay: Radioligand binding, [3H]rosiglitazone; details: read-out: % Specific Binding at 10 µM
T5 construct: purchased; host or cells: E. coli
T5 sequence (P37231 whole entry): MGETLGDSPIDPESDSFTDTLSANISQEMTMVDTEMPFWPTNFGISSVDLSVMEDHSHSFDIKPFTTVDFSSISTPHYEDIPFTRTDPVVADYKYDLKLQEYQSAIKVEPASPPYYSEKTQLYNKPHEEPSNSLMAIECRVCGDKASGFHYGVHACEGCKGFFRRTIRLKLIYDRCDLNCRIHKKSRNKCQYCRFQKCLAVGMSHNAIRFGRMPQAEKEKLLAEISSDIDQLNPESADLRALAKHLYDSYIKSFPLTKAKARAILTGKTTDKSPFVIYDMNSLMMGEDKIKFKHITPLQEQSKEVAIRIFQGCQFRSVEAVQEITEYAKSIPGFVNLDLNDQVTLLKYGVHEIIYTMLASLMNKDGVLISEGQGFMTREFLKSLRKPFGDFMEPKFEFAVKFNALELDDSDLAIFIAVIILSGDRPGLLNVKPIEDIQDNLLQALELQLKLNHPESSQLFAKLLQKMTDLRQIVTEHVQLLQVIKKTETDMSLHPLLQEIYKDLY

Ca = assay: Radioligand binding; details: listed as Benzopyran-G1 (SR)
Nav = assay: Radioligand binding, rat cerebral cortex
[2] = system: GABA Cl- channel (GABA-gated); assay: Radioligand binding, [35S]TBPS; parameters: species or system rat; details: 10 µM; listed as Benzopyran-G1 (SR)
Dopamine transporter = molecular target: T6, Dopamine transporter (Homo sapiens, UniProt Q01959); assay: Radioligand binding, [3H]BTCP; details: 10 µM; read-out: % Specific Binding at 10 µM
T6 construct: expressed in transfected cells; host or cells: CHO cells
T6 sequence (Q01959 whole entry): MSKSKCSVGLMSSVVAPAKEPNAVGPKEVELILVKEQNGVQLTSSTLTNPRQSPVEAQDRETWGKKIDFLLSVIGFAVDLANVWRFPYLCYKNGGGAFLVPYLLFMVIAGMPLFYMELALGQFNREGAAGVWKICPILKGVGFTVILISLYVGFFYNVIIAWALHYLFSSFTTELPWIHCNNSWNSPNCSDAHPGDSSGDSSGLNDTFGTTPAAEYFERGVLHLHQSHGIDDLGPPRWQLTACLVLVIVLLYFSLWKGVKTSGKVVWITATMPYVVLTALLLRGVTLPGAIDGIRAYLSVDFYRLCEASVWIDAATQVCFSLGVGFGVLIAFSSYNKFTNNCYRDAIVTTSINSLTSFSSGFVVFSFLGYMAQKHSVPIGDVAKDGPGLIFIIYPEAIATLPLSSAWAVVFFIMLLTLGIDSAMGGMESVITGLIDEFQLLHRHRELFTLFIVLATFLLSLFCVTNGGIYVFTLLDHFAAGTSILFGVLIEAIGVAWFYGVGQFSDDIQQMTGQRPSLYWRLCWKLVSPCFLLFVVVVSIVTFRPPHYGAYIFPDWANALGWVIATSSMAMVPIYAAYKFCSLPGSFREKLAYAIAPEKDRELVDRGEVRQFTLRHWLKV

Kir3.1/2 channel = molecular target: T7, Kir3.1/2 channel (UniProt P48542+P48549); assay: TEVC in Xenopus oocytes, Kir3.1/2; format: cell-based, human Kir3.1, mouse Kir3.2; parameters: expressed in transfected cells; details: TEVC
T7 sequence (P48549 1-501): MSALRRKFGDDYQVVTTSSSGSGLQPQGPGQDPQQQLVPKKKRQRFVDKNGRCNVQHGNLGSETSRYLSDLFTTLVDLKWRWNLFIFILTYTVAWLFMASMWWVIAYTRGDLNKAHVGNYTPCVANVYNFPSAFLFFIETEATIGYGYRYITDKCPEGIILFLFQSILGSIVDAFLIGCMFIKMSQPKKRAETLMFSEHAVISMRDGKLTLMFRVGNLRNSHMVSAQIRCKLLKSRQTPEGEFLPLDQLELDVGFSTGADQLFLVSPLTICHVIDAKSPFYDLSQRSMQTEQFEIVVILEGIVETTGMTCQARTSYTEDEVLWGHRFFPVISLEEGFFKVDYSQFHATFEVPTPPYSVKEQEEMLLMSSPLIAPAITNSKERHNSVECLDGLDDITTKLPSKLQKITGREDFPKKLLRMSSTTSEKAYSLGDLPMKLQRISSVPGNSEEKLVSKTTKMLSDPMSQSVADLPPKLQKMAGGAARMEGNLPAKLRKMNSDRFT
T7 sequence (P48542 1-425): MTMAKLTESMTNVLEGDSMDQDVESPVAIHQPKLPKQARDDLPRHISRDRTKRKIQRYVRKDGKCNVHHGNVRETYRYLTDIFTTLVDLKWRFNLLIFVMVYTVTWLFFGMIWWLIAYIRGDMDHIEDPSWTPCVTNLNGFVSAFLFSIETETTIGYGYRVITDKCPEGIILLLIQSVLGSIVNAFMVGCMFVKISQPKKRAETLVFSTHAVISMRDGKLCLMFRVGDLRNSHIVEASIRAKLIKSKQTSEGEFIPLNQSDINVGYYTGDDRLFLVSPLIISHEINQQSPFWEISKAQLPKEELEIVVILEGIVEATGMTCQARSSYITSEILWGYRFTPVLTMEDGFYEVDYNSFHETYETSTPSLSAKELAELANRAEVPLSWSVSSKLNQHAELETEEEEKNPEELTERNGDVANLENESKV
Description: (§1) X. laevis oocytes were isolated and microinjected as previously described ([6]). Human Kir3.1, mouse Kir3.2, and human Kir3.4 DNA constructs were used for electrophysiology experiments. All cRNA constructs were injected in the amount of 2 ng per oocyte. Injected oocytes were incubated for 2 to 3 days at 18 °C to allow for expression. Whole-cell oocyte currents were then measured using a GeneClamp 500 amplifier (Axon Instruments). Microelectrodes had resistances of 0.5 to 1 megohm using a 3M KCl solution in 1.4% agarose. Oocytes were perfused with a low K^+ (LK) solution ND96 (2 mM KCl, 96 mM NaCl, 1 mM MgCl2, 1.8 mM CaCl2, 5 mM HEPES-Na) to establish a baseline for the recordings. Basal current was measured in a high potassium (HK) solution ND96K (96 mM KCl, 10 mM HEPES-K, 1 mM MgCl2, 1.8 mM CaCl2). To block the current, the oocyte chamber was perfused with 4 mM BaCl2 in ND96K. Only the Barium-sensitive current was used for statistical analysis. To measure the inhibitory activity of the channels, 1 μM BP-G1 in ND96K (HK) was used. Typically, oocytes were held at 0 mV (EK) and the current was monitored constantly using a ramp protocol with a command potential from −80 to +80 mV. Current amplitude was measured at the end of a 1 s sweep. All currents were analyzed when they reached steady state. Error bars in the figures represent SD (N > 4).

Kir3.1/4 channel = molecular target: T8, Kir3.1/4 channel (Homo sapiens, UniProt P48544+P48549); assay: TEVC in Xenopus oocytes, Kir3.1/4; format: cell-based; parameters: expressed in transfected cells; host or cells: Xenopus laevis oocytes (cRNA injection); details: 1 μM, TEVC
T8 sequence (P48549 1-501): T7 sequence (P48549 1-501)
T8 sequence (P48544 1-419): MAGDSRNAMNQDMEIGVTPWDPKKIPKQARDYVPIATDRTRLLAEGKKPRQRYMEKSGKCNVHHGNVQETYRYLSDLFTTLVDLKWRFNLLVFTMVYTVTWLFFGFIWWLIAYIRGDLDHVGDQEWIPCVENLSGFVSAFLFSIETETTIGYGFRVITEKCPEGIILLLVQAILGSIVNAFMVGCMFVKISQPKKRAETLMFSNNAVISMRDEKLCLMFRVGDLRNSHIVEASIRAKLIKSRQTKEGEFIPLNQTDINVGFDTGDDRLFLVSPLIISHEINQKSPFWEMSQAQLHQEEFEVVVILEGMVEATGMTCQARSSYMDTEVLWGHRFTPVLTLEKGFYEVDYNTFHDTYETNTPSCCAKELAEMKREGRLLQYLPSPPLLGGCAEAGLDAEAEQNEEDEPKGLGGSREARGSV
Description: as §1

`Cc1cc(CO)nc2cc3c(cc12)OC(C)(C)[C@@H](O)[C@@H]3NCCc1ccccc1` [BP-G1(SR), (3S,4R)-7-(hydroxymethyl)-2,2,9-trimethyl-4-(2-phenylethylamino)-3,4-dihydropyrano[2,3-g]quinolin-3-ol] was tested, and the “RR interval 5 min after compound, given about 10 min after carbachol” value (IKACh; 40 μl of 240 μM via jugular vein, anesthetized mice, mean ± SD, N = 3) was 551.6 ± 185 ms, the “heart rate recovery after carbachol” value (IKACh; 40 μl via jugular vein) was “the heart rate did not recover to baseline” and the inhibition at 10 µM (Histamine H2) was 83.6%. For the same compound, the inhibition at 10 µM (Neurokinin NK1) was 64.2%, the inhibition at 10 µM (Opioid Kappa) was 31.3% and the inhibition at 10 µM (5-HT2A) was 46.4%. The inhibition at 10 µM [1] was 58.3%, the “% Specific Binding at 10 µM” value (Ca) was 28.633% and < 50% and the “% Specific Binding at 10 µM” value (Nav) was 68.800%. The “% Specific Binding at 10 µM” value [2] was < 50%, the inhibition at 10 µM (Dopamine transporter) was 44.6% and the “inhibitory activity on Kir3.1/2 channel” value (Kir3.1/2 channel) was “nominally inhibits; also recorded: unable to effectively inhibit”. For the same compound, the “inhibitory activity on Kir3.1/4 channel” value (Kir3.1/4 channel) was “nominally inhibits; also recorded: unable to effectively inhibit”.
